According to the supplement of paper PMC8967900:

test system: PF-382; assay: selective drug sensitivity score (sDSS, relative to normal bone marrow) (sDSS (score)); higher = more potent and effective on the cell line relative to normal bone marrow cells; conditions: 72 h
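Note: ALL cell lines in 384-well plates, five doses spanning 10,000-fold, each plate scaled between vehicle and 100 µmol/L benzalkonium chloride controls, sDSS an adapted area-under-curve metric.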

Compared with `CC(=O)[C@]1(O)Cc2c(O)c3c(c(O)c2[C@@H](O[C@H]2C[C@H](N)[C@H](O)[C@H](C)O2)C1)C(=O)c1ccccc1C3=O` [Idarubicin] (top concentration 1000 nM), `C[C@H]1C[C@@H]2[C@H]([C@@H](O)C[C@@]3(C)[C@H]2CC[C@]3(O)C(=O)CO)[C@@]2(C)C=CC(=O)C=C12` [Methylprednisolone] (top concentration 10000 nM) is lower in “selective drug sensitivity score” value: 1.24 for the first, -1.6 for the second.

Compared with `COc1cc2nccc(Oc3ccc(NC(=O)NC4CC4)c(Cl)c3)c2cc1C(N)=O` [Lenvatinib] (top concentration 2500 nM), `CCOc1cc2ncc(C#N)c(Nc3ccc(OCc4ccccn4)c(Cl)c3)c2cc1NC(=O)/C=C/CN(C)C` [Neratinib] (top concentration 1000 nM) is higher in “selective drug sensitivity score” value: -0.24 for the first, 0.88 for the second.

Compared with `N#Cc1ccc(C(c2ccc(C#N)cc2)n2cncn2)cc1` [Letrozole] (top concentration 10000 nM), `FC(F)(F)c1ccc(/C=C/c2nc(COc3ccc(CCCCn4ccnn4)cc3)co2)cc1` [Mubritinib] (top concentration 1000 nM) is higher in “selective drug sensitivity score” value: -0.04 for the first, 14.2 for the second.

Compared with `CCNCCS(=O)(=O)NC[C@@]1(c2ccccc2)SC(NC(=O)C(C)(C)C)=NN1C(=O)C(C)(C)C` [Litronesib] (top concentration 1000 nM), `O=C(CCNC(=O)c1ccc(OC(F)(F)F)cc1)N[C@@H]1CCCc2ccccc21` [ML390] (top concentration 50000 nM) is lower in “selective drug sensitivity score” value: 13.7 for the first, 9.8 for the second.

`CC[C@H](C)C(=O)O[C@H]1C[C@@H](C)C=C2C=C[C@H](C)[C@H](CC[C@@H]3C[C@@H](O)CC(=O)O3)[C@H]21` [Lovastatin] (top concentration 10000 nM) and `CC(C)N(C[C@H]1O[C@@H](n2cnc3c(N)ncnc32)[C@H](O)[C@@H]1O)[C@H]1C[C@@H](CCc2nc3cc(C(C)(C)C)ccc3[nH]2)C1` [Pinometostat] (top concentration 1000 nM) are the same in “selective drug sensitivity score” value: 0 for the first, 0 for the second.

Going from `Cn1cc(-c2cnn3c(N)c(Br)c([C@@H]4CCCNC4)nc23)cn1` [MK-8776] (top concentration 2500 nM) to `OC[C@H]1O[C@@H](n2cnc3c2N=CNC[C@H]3O)C[C@@H]1O` [Pentostatin] (top concentration 10000 nM), the “selective drug sensitivity score” value falls from 0.14 to -0.44.

Compared with `Cc1cnc(-c2ccccc2C(C)C)nc1NCc1ccc(-n2ccnn2)cc1` [ML323] (top concentration 10000 nM), `Cc1ccc(=O)n(-c2ccccc2)c1` [Pirfenidone] (top concentration 10000 nM) is lower in “selective drug sensitivity score” value: 3.04 for the first, 0 for the second.

Going from `CN(C)C(=N)NC(=N)N` [Metformin] (top concentration 100000 nM) to `CN1CCN(c2cc(C(=O)Nc3ccc4c(c3)-c3c(c(C(N)=O)nn3-c3ccc(F)cc3)CC4)c(Cl)cn2)CC1` [PHA-408] (top concentration 10000 nM), the “selective drug sensitivity score” value rises from -0.02 to 1.48.

Compared with `COc1cc2c(cc1OC(C)C)[C@H](c1ccc(Cl)cc1)N(c1ccc(N(C)C[C@H]3CC[C@H](N4CCN(C)C(=O)C4)CC3)cc1)C(=O)C2` [NVP-CGM097] (top concentration 25000 nM), `COc1ncc(-c2ccc3nccc(-c4ccnnc4)c3c2)cc1NS(=O)(=O)c1ccc(F)cc1F` [Omipalisib] (top concentration 1000 nM) is higher in “selective drug sensitivity score” value: -5.04 for the first, 9.8 for the second.

test system: RCH-ACV; assay: as above; conditions: 72 h

Compared with `CC(=O)[C@]1(O)Cc2c(O)c3c(c(O)c2[C@@H](O[C@H]2C[C@H](N)[C@H](O)[C@H](C)O2)C1)C(=O)c1ccccc1C3=O` [Idarubicin] (top concentration 1000 nM), `C[C@H]1C[C@@H]2[C@H]([C@@H](O)C[C@@]3(C)[C@H]2CC[C@]3(O)C(=O)CO)[C@@]2(C)C=CC(=O)C=C12` [Methylprednisolone] (top concentration 10000 nM) is higher in “selective drug sensitivity score” value: 12.7 for the first, 30.2 for the second.

Compared with `COc1cc2nccc(Oc3ccc(NC(=O)NC4CC4)c(Cl)c3)c2cc1C(N)=O` [Lenvatinib] (top concentration 2500 nM), `CCOc1cc2ncc(C#N)c(Nc3ccc(OCc4ccccn4)c(Cl)c3)c2cc1NC(=O)/C=C/CN(C)C` [Neratinib] (top concentration 1000 nM) is higher in “selective drug sensitivity score” value: 5.36 for the first, 5.38 for the second.

Compared with `N#Cc1ccc(C(c2ccc(C#N)cc2)n2cncn2)cc1` [Letrozole] (top concentration 10000 nM), `FC(F)(F)c1ccc(/C=C/c2nc(COc3ccc(CCCCn4ccnn4)cc3)co2)cc1` [Mubritinib] (top concentration 1000 nM) is higher in “selective drug sensitivity score” value: -0.04 for the first, 12.7 for the second.

Compared with `CCNCCS(=O)(=O)NC[C@@]1(c2ccccc2)SC(NC(=O)C(C)(C)C)=NN1C(=O)C(C)(C)C` [Litronesib] (top concentration 1000 nM), `O=C(CCNC(=O)c1ccc(OC(F)(F)F)cc1)N[C@@H]1CCCc2ccccc21` [ML390] (top concentration 50000 nM) is lower in “selective drug sensitivity score” value: 22.1 for the first, 21 for the second.

First: CC[C@H](C)C(=O)O[C@H]1C[C@@H](C)C=C2C=C[C@H](C)[C@H](CC[C@@H]3C[C@@H](O)CC(=O)O3)[C@H]21 [Lovastatin] (top concentration 10000 nM)
Second: CC(C)N(C[C@H]1O[C@@H](n2cnc3c(N)ncnc32)[C@H](O)[C@@H]1O)[C@H]1C[C@@H](CCc2nc3cc(C(C)(C)C)ccc3[nH]2)C1 [Pinometostat] (top concentration 1000 nM)
The “selective drug sensitivity score” value of the first is higher: 0.2 for the first, 0 for the second.

Compared with `Cn1cc(-c2cnn3c(N)c(Br)c([C@@H]4CCCNC4)nc23)cn1` [MK-8776] (top concentration 2500 nM), `OC[C@H]1O[C@@H](n2cnc3c2N=CNC[C@H]3O)C[C@@H]1O` [Pentostatin] (top concentration 10000 nM) is lower in “selective drug sensitivity score” value: 3.94 for the first, -0.44 for the second.

Compared with `Cc1cnc(-c2ccccc2C(C)C)nc1NCc1ccc(-n2ccnn2)cc1` [ML323] (top concentration 10000 nM), `Cc1ccc(=O)n(-c2ccccc2)c1` [Pirfenidone] (top concentration 10000 nM) is lower in “selective drug sensitivity score” value: 3.34 for the first, 0 for the second.

Compared with `CN(C)C(=N)NC(=N)N` [Metformin] (top concentration 100000 nM), `CN1CCN(c2cc(C(=O)Nc3ccc4c(c3)-c3c(c(C(N)=O)nn3-c3ccc(F)cc3)CC4)c(Cl)cn2)CC1` [PHA-408] (top concentration 10000 nM) is higher in “selective drug sensitivity score” value: -0.02 for the first, 5.28 for the second.

Going from `COc1cc2c(cc1OC(C)C)[C@H](c1ccc(Cl)cc1)N(c1ccc(N(C)C[C@H]3CC[C@H](N4CCN(C)C(=O)C4)CC3)cc1)C(=O)C2` [NVP-CGM097] (top concentration 25000 nM) to `COc1ncc(-c2ccc3nccc(-c4ccnnc4)c3c2)cc1NS(=O)(=O)c1ccc(F)cc1F` [Omipalisib] (top concentration 1000 nM), the “selective drug sensitivity score” value rises from 10.6 to 30.

test system: REH; assay: as above; conditions: 72 h

Compared with `CC(=O)[C@]1(O)Cc2c(O)c3c(c(O)c2[C@@H](O[C@H]2C[C@H](N)[C@H](O)[C@H](C)O2)C1)C(=O)c1ccccc1C3=O` [Idarubicin] (top concentration 1000 nM), `CC[C@H](C)C(=O)O[C@H]1C[C@@H](C)C=C2C=C[C@H](C)[C@H](CC[C@@H]3C[C@@H](O)CC(=O)O3)[C@H]21` [Lovastatin] (top concentration 10000 nM) is lower in “selective drug sensitivity score” value: 11.8 for the first, 1 for the second.

Compared with `COc1cc2nccc(Oc3ccc(NC(=O)NC4CC4)c(Cl)c3)c2cc1C(N)=O` [Lenvatinib] (top concentration 2500 nM), `O=C(CCNC(=O)c1ccc(OC(F)(F)F)cc1)N[C@@H]1CCCc2ccccc21` [ML390] (top concentration 50000 nM) is higher in “selective drug sensitivity score” value: -0.24 for the first, 16.1 for the second.

Compared with `N#Cc1ccc(C(c2ccc(C#N)cc2)n2cncn2)cc1` [Letrozole] (top concentration 10000 nM), `Cc1cnc(-c2ccccc2C(C)C)nc1NCc1ccc(-n2ccnn2)cc1` [ML323] (top concentration 10000 nM) is lower in “selective drug sensitivity score” value: 4.76 for the first, 3.44 for the second.

Compared with `CCNCCS(=O)(=O)NC[C@@]1(c2ccccc2)SC(NC(=O)C(C)(C)C)=NN1C(=O)C(C)(C)C` [Litronesib] (top concentration 1000 nM), `Cn1cc(-c2cnn3c(N)c(Br)c([C@@H]4CCCNC4)nc23)cn1` [MK-8776] (top concentration 2500 nM) is lower in “selective drug sensitivity score” value: 22.3 for the first, 0.24 for the second.

For `CN(C)C(=N)NC(=N)N` [Metformin] (top concentration 100000 nM), the “selective drug sensitivity score” value was 0.08.
